According to patent US20260355318A1, “MOLECULAR MACHINES FOR TREATMENT OF CANCER, FUNGAL INFECTIONS, OR BACTERIAL INFECTIONS” (priority 2022, published 2026):
Read-outs that look alike come from different tables or passages of the source.

Experiments:
E. coli [1] = experiment: MIC, E. coli; format: cell-based, Escherichia coli BW25113; settings: Escherichia coli, read-out: MIC of MM
A. baumannii [2] = experiment: MIC, A. baumannii; format: cell-based, Acinetobacter baumannii; settings: Acinetobacter baumannii, read-out: MIC of MM
Method: (§1) The appropriate volume of an MM stock at 8 mM necessary to achieve a concentration ranging from 0.3125 to 40 μM was pipetted into a 2 mL microcentrifuge tube to which 1 mL of cell suspension prepared as previously described was added. Corresponding negative controls (DMSO only) were prepared in the same way. The mixture was gently mixed by pipetting and incubated in the dark at 30 or 37 ° C, depending on the strain, for 30 min with agitation (220 rpm). Afterward, MM- or DMSO-treated cells were dispensed in one well of a 24-well plate positioned in the center of the light beam (405 nm LED Light, Prizmatix, UHP—F-5-405) placed at the appropriate distance necessary to achieve the desired light intensity of 304 mW cm-2, 146 mW cm2 or 87 mW cm2, as measured with a handheld digital power meter console coupled to an S415C thermal power sensor head (Thorlabs, Newton, MA, USA). The temperature during irradiation was monitored using a thermocouple probe (Model SC-TT-K-30-36-PP; Omega Engineering, Inc., Stanford, CT, USA). Samples were agitated during irradiation. Dark controls were prepared as previously described except that no irradiation was provided.
(§2) For MIC determination, samples treated with a range of concentrations of the different MM, as described above and were irradiated one at a time for 5 min at 146 mW cm^−2 (43.8 J cm^−2), after which irradiated aliquots were collected and inoculated into 1 mL MHB in a 2 mL microcentrifuge tube. Samples were incubated overnight at 30 or 37 ° C, depending on the strain, without agitation. Corresponding non-irradiated samples and negative controls (without bacteria) were also included. The following day, cultures were inspected for growth and the MIC was identified. The experimental procedure used to determine the MIC of visible light-activated MMs is schematically depicted in FIG. 26.

P. aeruginosa [3] = experiment: MIC, P. aeruginosa; format: cell-based, Pseudomonas aeruginosa; settings: Pseudomonas aeruginosa, read-out: MIC of MM
Method: as §1, §2

S. aureus [4] = experiment: MIC, S. aureus; format: cell-based, Staphylococcus aureus; settings: Staphylococcus aureus, read-out: MIC of MM
Method: as §1, §2

E. coli [5] = experiment: Time-kill / light-dose experiments, E. coli; format: cell-based, Escherichia coli; settings: E. coli, 2×MIC, 146 mW cm^−2 405 nm
Method: (§3) Serial dilutions of irradiated cell suspensions were prepared in PBS. A volume of 10 AL of the appropriate serial dilutions was spot-plated onto LB agar plates. Following overnight incubation at 30 or 37 ° C, depending on the strain, bacterial viability was assessed as colony forming units (CFU) per mL. Results were expressed as log (N/NO) whereby N is the CFU mL^−1 at each irradiation time point and NO is the initial CFU mL^−1 of the corresponding sample. Only dilutions that yielded 10-100 colonies were counted.

S. aureus [6] = experiment: Time-kill / light-dose experiments, S. aureus; format: cell-based, Staphylococcus aureus; settings: 2×MIC, 146 mW cm^−2 405 nm
Method: as §3

[7] = system: persister cells of E. coli; experiment: Persister eradication, E. coli; format: cell-based, Escherichia coli; settings: 1×MIC, 405 nm
Method: (§4) Persister cells of E. coli were prepared by adding ampicillin (100 μg mL^−1) to exponential-phase cells (OD600 of ≈0.8) followed by continuous agitation for another 3 b, as previously described (Keren et al., 2004). In the case of S. aureus, almost all stationary-phase are considered to be persistent (Keren et al., 2004). S. aureus cells were grown at 37 ° C and 220 rpm in LB broth to an OD600 of 0.3. Cells were then diluted 1:1000 in 25 mL LB and grown for 16 h at 37 ° C and 220 rpm in 250 mL flasks. […] At specified time points (0, 1, 2, 3, 4 and 5, 10 and 15 min), 50-μL aliquots were removed, serially diluted and spot-plated onto LB agar plates to determine colony-forming units per mL (CFU mL^−1). Only dilutions that yielded 10-100 colonies were counted. Results were expressed as log (N/NO) whereby N is the CFU mL^−1 at each irradiation time point and NO is the initial CFU mL^−1 of the corresponding sample. […].

[8] = system: persister cells of P. aeruginosa; experiment: Persister eradication, P. aeruginosa; format: cell-based, Pseudomonas aeruginosa; settings: 1×MIC, 405 nm
[9] = system: persister cells of S. aureus; experiment: Persister eradication, S. aureus; format: cell-based, Staphylococcus aureus; settings: 1×MIC, 405 nm
Method: as §4

C. albicans = experiment: MIC, visible-light-activated MMs and conventional antifungals, C. albicans; format: cell-based, Candida albicans (ATCC 18804); settings: Candida albicans, read-out: MIC of antifungal agent
Method: C. albicans cell suspensions were incubated with increasing concentrations of MMs and irradiated with 405-nm light at 292 mW cm^−2 for 5 min (87.6 J cm^−2). The minimum inhibitory concentration (MIC) was defined as the MM concentration resulting in no visible fungal growth after irradiation with 87.6 J cm^−2 of 405-nm light.
(§5) Cell suspensions for susceptibility testing (MMs and conventional antifungals) were prepared per the Clinical & Laboratory Standards Institute (CLSI) guidelines (CLSI, 2017; CLSI, 2008). Before testing, yeasts (C. albicans and S. cerevisiae) were sub-cultured in Sabouraud Dextrose Agar-Emmons Modification (SDAE) plates and grown for 24 h at 30 °C. Five independent colonies from 24-h-old plates were collected and diluted to ~10^4 colony forming units (CFU) per mL in sterile saline (CLSI, 2017). Molds (A. fumigatus and the dermatophytes T. rubrum and M. gypseum) were sub-cultured on SDAE medium and incubated for 7 days at 28 °C. Conidia were recovered by covering the plates with sterile distilled water and scraping the colonies. The suspensions were filtered (8-μm pore size) and diluted in saline to ~10^4 CFU mL^−1 (Santos and Hamdan, 2005).
(§6) After a 30-min incubation in the dark, cell suspensions were transferred to small, sterilized glass beakers, which were then placed in a water bath. Each sample was irradiated with 405-nm light at 292 mW cm^−2 for 5 min, corresponding to a light dose of 87.6 J cm^−2, determined using an S415C thermal power sensor (Thorlabs, Newton, MA, USA). During irradiation, the cell suspensions were agitated with a small metal stirrer. A thermocouple probe (model SC-TT-K-30-36-PP; Omega Engineering, Inc., Stanford, CT, USA) was used to monitor the temperature during irradiation. Irradiated cell suspensions were inoculated in 3-(N-morpholino) propanesulfonic acid (MOPS)-buffered Roswell Park Memorial Institute Medium (RPMI) 1640 (pH 7.0). Tubes were incubated at 30 ° C for 48 h (yeasts) and 28 ° C for 7 days (molds). The antifungal or MM concentration resulting in no visible growth was defined as the minimum inhibitory concentration (MIC) (CLSI, 2017; CLSI, 2008). Similarly prepared cell suspensions were used to determine the MIC of conventional antifungals.

S. cerevisiae = experiment: MIC, MMs and antifungals, S. cerevisiae; format: cell-based, Saccharomyces cerevisiae (ATCC 13007); settings: Saccharomyces cerevisiae, broth microdilution, read-out: MIC of antifungal agent
Method: as §5, §6

A. fumigatus = experiment: MIC, MMs and antifungals, A. fumigatus; format: cell-based, Aspergillus fumigatus (ATCC 1022); settings: Aspergillus fumigatus, read-out: MIC of antifungal agent
Method: as §5
After a 30-min incubation in the dark, cell suspensions were transferred to small, sterilized glass beakers, which were then placed in a water bath. Each sample was irradiated with 405-nm light at 292 mW cm^−2 for 5 min, corresponding to a light dose of 87.6 J cm^−2, determined using an S415C thermal power sensor (Thorlabs, Newton, MA, USA). During irradiation, the cell suspensions were agitated with a small metal stirrer. […]

A. baumannii [10] = experiment: Time-kill / light-dose experiments, A. baumannii; format: cell-based, Acinetobacter baumannii; settings: 2×MIC, 146 mW cm^−2 405 nm
Method: as §3

P. aeruginosa [11] = experiment: Time-kill / light-dose experiments, P. aeruginosa; format: cell-based, Pseudomonas aeruginosa; settings: 2×MIC, 146 mW cm^−2 405 nm
Method: as §3

[12] = system: persister cells of A. baumannii; experiment: Persister eradication, A. baumannii; format: cell-based, Acinetobacter baumannii; settings: 1×MIC, 405 nm
[13] = system: biofilms of P. aeruginosa and S. aureus; experiment: Biofilm total bacterial cell number (acridine orange); format: cell-based, Pseudomonas aeruginosa, Staphylococcus aureus; settings: 2×MIC, vs untreated controls
Method: (§7) This combination of methods is effective at evaluating the antibiofilm potential of chemicals (Stiefel et al., 2016). P. aeruginosa and S. aureus were grown overnight in tryptic soy broth (TSB) medium. The overnight cultures were diluted in 1:100 in fresh media and 100 μL aliquots were distributed in a 96-well plate. After 24 h of static growth at 37 ° C, planktonic cells were removed by inverting the plate onto a stack of paper towels, and the biofilm was washed three times with PBS. After washing, MM 1, MM 5, or MM 6 were added at 2×MIC to the biofilm and incubated statically in the dark for 60 min. The biofilm was then irradiated for 15, 30, or 45 min at 146 mW cm2. For the determination of the total bacterial number, acridine orange solution (2% in H2O) diluted 1:100 in Walpole's buffer (27.2 g L-1 sodium acetate trihydrate, adjusted to pH 4 with glacial acetic acid) was added to the wells.

[14] = system: biofilms of P. aeruginosa and S. aureus; experiment: Biofilm metabolically active cells (ATP); format: cell-based, Pseudomonas aeruginosa, Staphylococcus aureus; settings: 2×MIC, antibiotics 45 min, MMs 15 min + light, vs untreated
Method: as §7
For quantification of viable cells in biofilms, following the addition of 100 μL […] of TSB to each well, bacteria were detached from the biofilm by thorough mixing, after which […] of BacTiter-Glo™ reagent, prepared according to the manufacturer's instructions, was added to each well.

[15] = E. coli, Table 9, 405 nm light 43.8 J cm^−2

SMILES | MIC (E. coli [1]; [15]) | MIC (A. baumannii [2]) | MIC (P. aeruginosa [3]) | MIC (S. aureus [4]) | time to complete elimination (S. aureus [6]) | time to reduce persister cells to limit of detection [7] | time to reduce persister cells to limit of detection [9] | also measured
C[C@@H]1Cc2cc(NCCN(C)C)c3ccccc3c2C1=C1c2ccccc2Sc2ccccc21 (stereo in doubt) [MM 2, N^1,N^1-Dimethyl-N^2-(2-methyl-1-(9H-thioxanthen-9-ylidene)-2,3-dihydro-1H-cyclopenta[a]naphthalen-5-yl) ethane-1,2-diamine] | 32 µM | 20 µM | 5 µM | 1.25 µM | 4 min | 5 min | 3 min | MIC (E. coli [1]; E. coli BW25113, 405 nm light 43.8 J cm^−2): 32 µM; time to reduce cell number to limit of detection (E. coli [5]): 10 min; time to reduce persister cells to limit of detection [8]: 15 min
C[C@@H](c1ncncc1F)[C@](O)(Cn1cncn1)c1ccc(F)cc1F [Voriconazole (VRC), Voriconazole] | – | – | – | – | – | – | – | MIC (C. albicans): 0.03 µg/mL; MIC (S. cerevisiae): 0.125 µg/mL; MIC (A. fumigatus): 0.5 µg/mL
C[C@@H]1Cc2cc(N(C)CCN(C)C)c3ccccc3c2C1=C1c2ccccc2Sc2ccccc21 [MM 3, N^1,N^1,N^2-trimethyl-N^2-(2-methyl-1-(9H-thioxanthen-9-ylidene) ~2,3-dihydro-1H-cyclopenta[a]naphthalen-5-yl) ethane-1,2-diamine] | 16 µM | 20 µM | 5 µM | 1.25 µM | 4 min | 10 min | 10 min | time to reduce cell number to limit of detection (A. baumannii [10]): 10 min; time to reduce cell number to limit of detection (P. aeruginosa [11]): 10 min; time to reduce persister cells to limit of detection [12]: 15 min
CO[C@H]1/C=C/O[C@@]2(C)Oc3c(C)c(O)c4c(O)c(c(/C=N/N5CCN(C)CC5)c(O)c4c3C2=O)NC(=O)/C(C)=C\C=C\[C@H](C)[C@H](O)[C@@H](C)[C@@H](O)[C@@H](C)[C@H](OC(C)=O)[C@@H]1C [rifampin] | – | – | – | – | – | – | – | reduction in total bacterial cell number in biofilm [13]: ≤ 64%; reduction in metabolically active cells in biofilm [14]: 18%
